Results: patent US20130053277A1 (priority 2010, published 2013)

Assays:
[1] = target: M2 H+ channel, Singapore wild-type (Influenza A virus, UniProt P10920); type: cell-based, Influenza A (Singapore H2N2 isolate)
[2] = target: influenza A virus M2 proton-selective ion channel, wild-type (Influenza A virus, UniProt P0DOF5); conditions: cited from earlier work
Sequence of influenza A virus M2 proton-selective ion channel, wild-type (P0DOF5 whole entry, looked up): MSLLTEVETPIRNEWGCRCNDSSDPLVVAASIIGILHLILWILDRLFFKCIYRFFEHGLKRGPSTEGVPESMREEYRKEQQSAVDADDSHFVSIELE

Sequence of M2 H+ channel, Singapore wild-type (P10920 whole entry, looked up): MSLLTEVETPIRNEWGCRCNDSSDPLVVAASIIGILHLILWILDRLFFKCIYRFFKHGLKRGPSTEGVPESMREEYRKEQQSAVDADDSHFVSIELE

SMILES	Ks (Monod coefficient, inhibitory constant) [1] [nM]	relief of growth inhibition by the channel from the Singapore strain [1]	isochronic apparent inhibitory binding constant [2] [µM]	Ks (dynamic range statement) [1] [nm]	activity (growth retardation relief, O.D.600) compared between the two drugs [1]	relief of growth retardation of bacteria expressing the M2 channel [1]
NC12CC3CC(CC(C3)C1)C2 [amantadine, Amantadine]	140	substantially relieved	16			
CC(N)C12CC3CC(CC(C3)C1)C2 (centres unmarked) [rimantadine, Rimantadine]	15	substantially relieved		15	more pronounced than amantadine	significantly alleviate
